# Species: Rattus norvegicus
# Test: DrugMatrix - Regimen: Daily Repeat
# Assay type: toxicity, organism-based, Sprague-Dawley
# Parameters: regimen Daily Repeat, gender Male, age 6-8 weeks
# Conditions: in vivo, 0 mg/kg, dose level Control; for ABSOLUTE BASOPHIL / ABSOLUTE EOSINOPHIL / ABSOLUTE LYMPHOCYTE / ABSOLUTE MONOCYTE / ABSOLUTE SEGMENTED NEUTROPHIL / BASOPHIL / EOSINOPHIL / ERYTHROCYTE COUNT / HEMATOCRIT / HEMOGLOBIN / LEUKOCYTE COUNT / LYMPHOCYTE / MEAN CORPUSCULAR HEMOGLOBIN / MEAN CORPUSCULAR VOLUME / MONOCYTE / NEUTROPHIL / NUCLEATED RED BLOOD CELLS / PLATELET COUNT: tissue Blood; for ALANINE AMINOTRANSFERASE / ALBUMIN / ALKALINE PHOSPHATASE / ASPARTATE AMINOTRANSFERASE / BLOOD UREA NITROGEN / CARBON DIOXIDE / CHLORIDE / CHOLESTEROL / CREATINE PHOSPHOKINASE / CREATININE / GLUCOSE / LACTATE DEHYDROGENASE / LIPASE / PHOSPHORUS / POTASSIUM / SODIUM / TOTAL BILIRUBIN / TOTAL PROTEIN / URIC ACID: tissue Plasma
# [1] = po, 72 h, route oral GAVAGE, time 3 day, vehicle 100 % WATER
# [2] = po, 120 h, route oral GAVAGE, time 5 day, vehicle 100 % WATER
# [3] = sc, 72 h, route subcutaneous, time 3 day, […]
# [4] = sc, 120 h, route subcutaneous, time 5 day, […]
smiles,measurement,setting,value
CC(C)(C)CC(C)(C)c1ccc(OCCOCC[N+](C)(C)Cc2ccccc2)cc1.[Cl-] [BENZETHONIUM CHLORIDE],ABSOLUTE BASOPHIL,[1],0 CELLS/uL
same,ABSOLUTE EOSINOPHIL,[1],20.17 CELLS/uL
same,ABSOLUTE LYMPHOCYTE,[1],12371.67 CELLS/uL
same,ABSOLUTE MONOCYTE,[1],166 CELLS/uL
same,ABSOLUTE SEGMENTED NEUTROPHIL,[1],1292.17 CELLS/uL
same,BASOPHIL,[1],0%
same,EOSINOPHIL,[1],0.17%
same,ERYTHROCYTE COUNT,[1],5.46 x10E6/uL
same,HEMATOCRIT,[1],34.38%
same,HEMOGLOBIN,[1],13.32 G/DL
same,LEUKOCYTE COUNT,[1],13.85 x10E3/uL
same,LYMPHOCYTE,[1],88.5%
same,MEAN CORPUSCULAR HEMOGLOBIN,[1],24.42 pg
same,MEAN CORPUSCULAR VOLUME,[1],63.07 fL
same,MONOCYTE,[1],1.17%
same,NEUTROPHIL,[1],10.17%
same,NUCLEATED RED BLOOD CELLS,[1],0.17 /100WBC
same,PLATELET COUNT,[1],1193.5 x10E3/uL
same,ALANINE AMINOTRANSFERASE,[1],54.5 u/L
same,ALBUMIN,[1],4.02 G/DL
same,ALKALINE PHOSPHATASE,[1],346.5 u/L
same,ASPARTATE AMINOTRANSFERASE,[1],103.17 u/L
same,BLOOD UREA NITROGEN,[1],16.5 mg/dL
same,CARBON DIOXIDE,[1],29.83 mmol/L
same,CHLORIDE,[1],99.5 MEQ/L
same,CHOLESTEROL,[1],72.5 mg/dL
same,CREATINE PHOSPHOKINASE,[1],532.5 u/L
same,CREATININE,[1],0.18 mg/dL
same,GLUCOSE,[1],168.5 mg/dL
same,LACTATE DEHYDROGENASE,[1],536.5 u/L
same,LIPASE,[1],11.17 u/L
same,PHOSPHORUS,[1],11.48 mg/dL
same,POTASSIUM,[1],5.95 MEQ/L
same,SODIUM,[1],140.5 MEQ/L
same,TOTAL BILIRUBIN,[1],0.18 mg/dL
same,TOTAL PROTEIN,[1],5.77 G/DL
same,URIC ACID,[1],1.42 mg/dL
same,ABSOLUTE BASOPHIL,[2],0 CELLS/uL
same,ABSOLUTE EOSINOPHIL,[2],22.83 CELLS/uL
same,ABSOLUTE LYMPHOCYTE,[2],12202.83 CELLS/uL
same,ABSOLUTE MONOCYTE,[2],158 CELLS/uL
same,ABSOLUTE SEGMENTED NEUTROPHIL,[2],1283 CELLS/uL
same,BASOPHIL,[2],0%
same,EOSINOPHIL,[2],0.17%
same,ERYTHROCYTE COUNT,[2],5.88 x10E6/uL
same,HEMATOCRIT,[2],36.62%
same,HEMOGLOBIN,[2],14.07 G/DL
same,LEUKOCYTE COUNT,[2],13.67 x10E3/uL
same,LYMPHOCYTE,[2],89.5%
same,MEAN CORPUSCULAR HEMOGLOBIN,[2],23.95 pg
same,MEAN CORPUSCULAR VOLUME,[2],62.28 fL
same,MONOCYTE,[2],1.17%
same,NEUTROPHIL,[2],9.17%
same,NUCLEATED RED BLOOD CELLS,[2],0.17 /100WBC
same,PLATELET COUNT,[2],1198 x10E3/uL
same,ALANINE AMINOTRANSFERASE,[2],51 u/L
same,ALBUMIN,[2],4.3 G/DL
same,ALKALINE PHOSPHATASE,[2],343 u/L
same,ASPARTATE AMINOTRANSFERASE,[2],89.83 u/L
same,BLOOD UREA NITROGEN,[2],17.67 mg/dL
same,CARBON DIOXIDE,[2],27.17 mmol/L
same,CHLORIDE,[2],98.33 MEQ/L
same,CHOLESTEROL,[2],82.5 mg/dL
same,CREATINE PHOSPHOKINASE,[2],533.33 u/L
same,CREATININE,[2],0.18 mg/dL
same,GLUCOSE,[2],152.67 mg/dL
same,LACTATE DEHYDROGENASE,[2],220.33 u/L
same,LIPASE,[2],11.5 u/L
same,PHOSPHORUS,[2],11.25 mg/dL
same,POTASSIUM,[2],6.29 MEQ/L
same,SODIUM,[2],140.53 MEQ/L
same,TOTAL BILIRUBIN,[2],0.22 mg/dL
same,TOTAL PROTEIN,[2],6.12 G/DL
same,URIC ACID,[2],1.42 mg/dL
same,ABSOLUTE BASOPHIL,[3],0 CELLS/uL
same,ABSOLUTE EOSINOPHIL,[3],92.33 CELLS/uL
same,ABSOLUTE LYMPHOCYTE,[3],12247.5 CELLS/uL
same,ABSOLUTE MONOCYTE,[3],389.67 CELLS/uL
same,ABSOLUTE SEGMENTED NEUTROPHIL,[3],1320.5 CELLS/uL
same,BASOPHIL,[3],0%
same,EOSINOPHIL,[3],0.67%
same,ERYTHROCYTE COUNT,[3],5.45 x10E6/uL
same,HEMATOCRIT,[3],34.85%
same,HEMOGLOBIN,[3],12.97 G/DL
same,LEUKOCYTE COUNT,[3],14.05 x10E3/uL
same,LYMPHOCYTE,[3],87.33%
same,MEAN CORPUSCULAR HEMOGLOBIN,[3],23.78 pg
same,MEAN CORPUSCULAR VOLUME,[3],63.93 fL
same,MONOCYTE,[3],2.67%
same,NEUTROPHIL,[3],9.33%
same,NUCLEATED RED BLOOD CELLS,[3],0 /100WBC
same,PLATELET COUNT,[3],1174 x10E3/uL
same,ALANINE AMINOTRANSFERASE,[3],48.83 u/L
same,ALBUMIN,[3],4.23 G/DL
same,ALKALINE PHOSPHATASE,[3],351.5 u/L
same,ASPARTATE AMINOTRANSFERASE,[3],90 u/L
same,BLOOD UREA NITROGEN,[3],15.33 mg/dL
same,CARBON DIOXIDE,[3],23 mmol/L
same,CHLORIDE,[3],103.5 MEQ/L
same,CHOLESTEROL,[3],70.5 mg/dL
same,CREATINE PHOSPHOKINASE,[3],651.83 u/L
same,CREATININE,[3],0.22 mg/dL
same,GLUCOSE,[3],180.67 mg/dL
same,LACTATE DEHYDROGENASE,[3],165 u/L
same,LIPASE,[3],9.33 u/L
same,PHOSPHORUS,[3],12.03 mg/dL
same,POTASSIUM,[3],6.17 MEQ/L
same,SODIUM,[3],142.62 MEQ/L
same,TOTAL BILIRUBIN,[3],0.2 mg/dL
same,TOTAL PROTEIN,[3],5.73 G/DL
same,URIC ACID,[3],1.77 mg/dL
same,ABSOLUTE BASOPHIL,[4],0 CELLS/uL
same,ABSOLUTE EOSINOPHIL,[4],0 CELLS/uL
same,ABSOLUTE LYMPHOCYTE,[4],12736.67 CELLS/uL
same,ABSOLUTE MONOCYTE,[4],253.5 CELLS/uL
same,ABSOLUTE SEGMENTED NEUTROPHIL,[4],1193.17 CELLS/uL
same,BASOPHIL,[4],0%
same,EOSINOPHIL,[4],0%
same,ERYTHROCYTE COUNT,[4],5.72 x10E6/uL
same,HEMATOCRIT,[4],36.05%
same,HEMOGLOBIN,[4],13.62 G/DL
same,LEUKOCYTE COUNT,[4],14.18 x10E3/uL
same,LYMPHOCYTE,[4],89.33%
same,MEAN CORPUSCULAR HEMOGLOBIN,[4],23.83 pg
same,MEAN CORPUSCULAR VOLUME,[4],63.05 fL
same,MONOCYTE,[4],1.83%
same,NEUTROPHIL,[4],8.83%
same,NUCLEATED RED BLOOD CELLS,[4],0 /100WBC
same,PLATELET COUNT,[4],1322.17 x10E3/uL
same,ALANINE AMINOTRANSFERASE,[4],48.83 u/L
same,ALBUMIN,[4],4.27 G/DL
same,ALKALINE PHOSPHATASE,[4],295.17 u/L
same,ASPARTATE AMINOTRANSFERASE,[4],75.83 u/L
same,BLOOD UREA NITROGEN,[4],15.5 mg/dL
same,CARBON DIOXIDE,[4],30.5 mmol/L
same,CHLORIDE,[4],102.33 MEQ/L
same,CHOLESTEROL,[4],76.17 mg/dL
same,CREATINE PHOSPHOKINASE,[4],205.5 u/L
same,CREATININE,[4],0.2 mg/dL
same,GLUCOSE,[4],149.67 mg/dL
same,LACTATE DEHYDROGENASE,[4],124.5 u/L
same,LIPASE,[4],10 u/L
same,PHOSPHORUS,[4],10.93 mg/dL
same,POTASSIUM,[4],6.59 MEQ/L
same,SODIUM,[4],143.1 MEQ/L
same,TOTAL BILIRUBIN,[4],0.2 mg/dL
same,TOTAL PROTEIN,[4],6.05 G/DL
same,URIC ACID,[4],1.45 mg/dL

# Reference: ChEMBL document CHEMBL3885881, “DrugMatrix”
